Experimental data taken from patent US20100168085A1, “Dopamine and agonists and antagonists thereof for modulation of suppressive activity of CD4+CD25+ regulatory T cells” (YESA RESEARCH AND DEVELOPMENT CO. LTD. at the Weizmann …, priority 2003, published 2010).

Legend:
[1] = test system: Treg; test: Treg apoptosis (propidium iodide sub-G1, annexin V, FACS); type: cell-based, mouse
Experimental: (viii) FACS analysis of annexin V-positive regulatory T cells. PE-stained CD25^+ cells were stained for annexin V-FITC according to the manufacturer's instructions. The cells were scored as described above, and CD25^+ lymphocytes were then gated for analysis of annexin V-positive cells.
(xv) Propidium iodide staining. Cells were fixed in cold ethanol 80% and treated with RNAse. Propidium iodide was then applied, and cell samples were assessed by FACSort.

[2] = test system: suppressive activity of Treg in vivo (neuronal survival); conditions: Treg incubated with dopamine (10^−5 M, 2 h) prior to systemic injection
Source text: To unequivocally show the direct effect of dopamine on Treg activity in vivo, we examined whether direct exposure of Treg to dopamine can reduce their suppressive activity in a model of neuronal survival.

[3] = test system: suppressive activity of CD4+CD25+ regulatory T cells (Treg) on Teff proliferation; test: Inhibition assay (co-culturing of Teff with Treg), [3H]-thymidine incorporation; type: cell-based, mouse; conditions: for Inhibitory effect on Treg activity: freshly isolated (nonactivated) Treg; for Effect on Treg suppressive activity: activated Treg
Experimental: (xvi) Activation of CD4^+CD25^+ regulatory T cells. Purified regulatory T cells (Treg; 0.5×10^6 cells/mL) were activated in RPMI medium supplemented with L-glutamine (2 mM), 2-mercaptoethanol (5×10^−5 M), sodium pyruvate (1 mM), penicillin (100 IU/mL), streptomycin (100 μg/mL), nonessential amino acids (1 mL/100 mL), and autologous serum 2% (vol/vol) in the presence of mrIL-2 (5 ng/mL) and soluble anti-CD3 antibodies (1 ng/mL). Irradiated (2500 rad) splenocytes (1.5×10^6 cells/mL) were added to the culture. Cells were activated for 24 or 96 h. In some of the 96-h experiments, fresh dopamine was added to the culture every 24 h during activation.
(xvii) Inhibition assay (co-culturing of Teff with Treg). Naïve effector T cells (Teff; 50×10^3 cells/well) were co-cultured with decreasing numbers of activated Treg for 72 h in 96-well flat-bottomed plates in the presence of irradiated splenocytes (10^6/mL) supplemented with anti-CD3 antibodies. [^3H]-thymidine (1 μCi) was added for the last 16 h of culture. After the cells were harvested, their [^3H]-thymidine content was analyzed by the use of […].
In this experiment, we examined whether dopamine acts on Treg and alters their suppressive effect on Teff. Suppression of proliferation of Teff, assayed by [^3H]thymidine incorporation, was used as a measure of suppressive effect of Treg (Thornton and Shevach, 1998).
Shevach, 1998, 2000). Inhibition of Treg proliferation, assayed by [^3H]thymidine incorporation, can therefore be taken as a measure of the suppressive effect. We examined the ability of major neurotransmitters and neuropeptides (dopamine, norepinephrine, substance P, and serotonin) to alleviate the Treg-induced suppression of Teff in vitro. Each compound was tested at several concentrations. […] After incubating the activated Treg for 2 h with a neurotransmitter or a neuropeptide, we washed the cells and then co-cultured them with Teff.

[4] = test system: adhesion of Treg and Teff to fibronectin
Experimental: (§1) One of the main features of T cells is their ability to migrate to tissues in need of rescue or repair [such as diseased or damaged CNS (Hickey, 1999; Flugel et al., 2001). […] We therefore incubated Treg with dopamine for 2 h and then examined their adhesion to chondroitin sulfate proteoglycans (CSPG), extracellular matrix proteins often associated with injured tissues (Jones et al., 2003).

[5] = test system: migration of Treg towards MDC (CCL22)
Experimental: The migration of T cells across polycarbonate filters (pore size 5 μm, diameter 6.5 mm) towards SDF-1 and MDC (CCL22) was assayed in 24-well Transwell chambers (Costar, Corning, Corning, N.Y.). T lymphocytes (1.67×10^6 cells/mL) were suspended in RPMI/0.1% BSA, and 150 μL of the cell suspension was added to the upper chamber after incubation with or without dopamine (90 min, 37° C.). Chemokines were added to the lower chamber at concentrations of 1 μg/mL SDF-1 (CytoLab, Israel) and 0.25 μg/mL MDC (R&D Systems). The plates were incubated for 90 min at 37° C. in 9.5% CO2. […] The numbers of migrating T cells were measured by flow cytometer acquisition for a fixed time (60 s). To calculate specific migration, the number of cells in each subpopulation in the absence of chemokine was subtracted from the number in the corresponding cell subpopulation that migrated in the presence of chemokines. The number of migrating CD4^+CD25^+ T cells was calculated as a percentage of the total T cell population before migration. For migration of purified population we used a similar protocol.
We therefore examined whether exposure to dopamine would also affect Treg migration. For this experiment we used a normal population of CD4^+ T cells, of which Treg (CD4^+CD25^+) accounts for approximately 11% (FIG. 4e).
To examine the direct effect of dopamine on the migration of Treg, we assayed the effect of dopamine on the migration of purified Treg towards MDC. The migratory Treg were stained for CD4 to ensure that cell debris and aggregates would not be counted among them.

[6] = test system: IL-10 production by Treg; conditions: 10^−5 M; 24 h, 48 h and 72 h
Experimental: (x) Enzyme-linked immunosorbent assay. Treg or Teff (0.5×10^6 cells/ml) were cultured for 48 h in the presence of anti-CD3 and anti-CD28. After 48 h the cells were centrifuged and their supernatants were collected and sampled. Concentrations of IL-2 in the samples were determined by the use of sandwich enzyme-linked immunosorbent assay (ELISA) kits (R&D Systems, Minneapolis, Minn.). For detection of secreted IL-10 cells were centrifuged every 24 h and replaced with a fresh medium. Supernatants obtained from cells after 24, 48 and 72 h in culture were subjected to ELISA kit (Diaclone Research, Fleming, France). The plates were developed using a 3,3′,5,5′-tetramethyl-benzidine liquid substrate system (Sigma, St. Louis, Mo.). The reaction was stopped by adding 1M H3PO4. Results for each experiment were calculated as the amount of secreted cytokine per 1 ml of sample, after subtraction of the background levels of the medium.

[7] = test system: adhesion of Treg and Teff to chondroitin sulfate proteoglycans (CSPG); test: T cell adhesion to CSPG; type: cell-based, mouse
Experimental: (xiii) T cell adhesion. Adhesion of activated CD4^+CD25^+ and CD4^+CD25^− T cells to CSPG was analyzed as previously described (23). Briefly, flat-bottomed microtiter (96-well) plates were pre-coated with CSPG (1 μg/well, 40 min, 37° C.). ^51Cr-labeled T cells were left untreated or were pre-incubated (30 min, 37° C.) with dopamine or the specified agonist or antagonist (10^−5M). The cells (10^5 cells in 100 μL of RPMI containing 0.1% BSA) were then added to the CSPG-coated wells, incubated (30 min, 37° C.), and washed. Adherent cells were lysed and the resulting supernatants were removed and counted in a γ-counter. Results were expressed as the mean percentage of the total population before adhesion of bound T cells from quadruplicate wells for each experimental group.
as §1
(§2) To verify that the effect of dopamine on adhesion of Treg is exerted through the ERK1/2 pathway, we incubated Treg with the ERK1/2 signaling pathway inhibitor PD98059 before carrying out the adhesion assay. […] Since interaction of T cells with CSPG is mediated in part by the CD44 receptor (Henke et al., 1996), and in light of the known dependence of CD44 expression on the ERK signaling pathway, it was conceivable that dopamine might affect the expression of CD44 in Treg.

[8] = test system: CD44 expression in Treg and Teff
Experimental: as §2

[9] = test system: LFA-1, I-CAM, and V-CAM in Treg; conditions: data not shown
Experimental: as §2

[10] = Teff incubated 2 h with 10^−5 M

Question: `NCCc1ccc(O)c(O)c1` [dopamine, 3,4-dihydroxyphenethylamine] was tested. Which “Apoptosis, annexin V staining for phosphatidylserine” value ([1]; Treg incubated with compound) did it give?
Answer: could not detect any signs of apoptosis

Question: What about the “Apoptotic cells (sub-G1), propidium iodide staining” value ([1]; Treg incubated with dopamine) of the same compound?
Answer: No signs of apoptosis

Question: What about the “Suppressive effect of injected Treg on neuronal survival” value [2] of the same compound?
Answer: abolished their suppressive effect

Question: What about the “Proliferation of Teff co-cultured with activated Treg incubated with compound versus Treg not incubated” value ([3]; 10^−5 M, 2 h, Treg activated 24 h with anti-CD3 and IL-2) of the same compound?
Answer: more than twofold higher

Question: And the “Inhibitory effect on Treg activity” value ([3]; 10^−5 and 10^−7 M)?
Answer: reproduced

Question: And the “Effect on Treg suppressive activity” value ([3]; 10^−7 M, 2 h)?
Answer: significant effect

Question: What about the “Effect on Treg suppressive activity” value ([3]; 10^−9 M, 2 h) of the same compound?
Answer: no significant effect

Question: What about the “Inhibitory effect on Treg activity” value ([3]; 10^−9 M) of the same compound?
Answer: slight and not statistically significant

Question: What about the “Direct effect on Teff proliferation” value [3, 10] of the same compound?
Answer: did not differ

Question: And the “Susceptibility of Teff to Treg suppression” value [3, 10]?
Answer: did not alter the susceptibility of Teff to Treg suppression

Question: What about the “Teff proliferation with treated versus untreated activated Treg” value ([3]; Treg activated 96 h, 10^−5 M for 2 h at end of activation) of the same compound?
Answer: significantly higher

Question: And the “Extent of effect on Treg suppressive activity” value ([3]; any of the concentrations tested)?
Answer: only partial

Question: What about the “Adhesion of Teff to fibronectin” value [4] of the same compound?
Answer: slight increase

Question: And the “Adhesion of Treg to fibronectin” value [4]?
Answer: no effect

Question: And the “Migration of purified Treg towards MDC” value [5]?
Answer: almost completely abolished

Question: And the “Treg (CD4+CD25+) share of CD4+ cells migrating towards MDC” value ([5]; after exposure of CD4+ population to dopamine, 17% without dopamine)?
Answer: approximately 10%

Question: And the “Migration of Teff” value ([5]; data not shown)?
Answer: no effect

Question: What about the “Amount of IL-10 in media of Treg” value [6] of the same compound?
Answer: significant decrease

Question: What about the “Adhesion of Teff to CSPG” value [7] of the same compound?
Answer: slight, nonsignificant effect

Question: And the “Adhesion of Treg to CSPG” value ([7]; dopamine 10^−9-10^−5 M, concentration-dependent, agonist 10^−5 M)?
Answer: significantly decreased

Question: And the “CD44 immunoreactivity in Treg” value ([8]; activated 24 h, 2 h with dopamine)?
Answer: decreased CD44 immunoreactivity

Question: And the “CD44 expression in Teff” value ([8]; after incubation with dopamine)?
Answer: not affected

Question: And the “LFA-1, I-CAM, V-CAM in Treg” value [9]?
Answer: did not show any dopamine-related changes
